Test results from patent publication US9181197B2 (priority 2008, dated 2015).
Where “and” joins values, the source holds several entries; their conditions need not be identical. Identical values can stand only once. Entries after “also recorded” stand apart in the source; their conditions may differ. Like-named read-outs stand apart in the source and are kept apart here.

Assays:
rats [1] = settings: rat, in vivo, iv
rats [2] = test: heart rate and blood pressure in rats at equianesthetic doses; settings: for increase in heart rate shortly after injection / duration of significant effect on mean blood pressure / maximum decrease in mean blood pressure relative to baseline: IV, twice ED50 for LORR; for maximum decrease in mean blood pressure relative to baseline: n=3
rats [3] = test: loss of righting reflex (LORR) in rats after IV bolus; format: in vivo; settings: for ED50: Rattus norvegicus; for ED50 / slope of duration of LORR versus logarithm of anesthetic dose: rats, IV bolus; for anesthetic toxicity in rats: highest doses
Protocol: Rats were briefly restrained in a 3 inch diameter, 9 inch long acrylic chamber with a tail exit port. The desired dose of anesthetic was injected through a lateral tail vein catheter followed by an approximately 1 ml normal saline flush. Immediately after injection, rats were removed from the restraint device and turned supine. […] A stop-watch was used to measure the duration of LORR, which was defined as the time from drug injection until the animal spontaneously righted itself. The ED50 for LORR upon bolus anesthetic administration was determined from the anesthetic dose-dependence of LORR.

[4] = target: T1, Human GABAA receptors composed of α1β2γ2L subunits (Homo sapiens, UniProt P14867+P47870); test: two-microelectrode voltage clamp of GABAA receptor currents in Xenopus oocytes; format: cell-based; settings: for enhancement of amplitudes of GABA-evoked currents: EC5-10 GABA, each anesthetic at its anesthetic EC50 (8 μM MOC-(R)-etomidate, 2 μM (R)-etomidate), n=6 oocytes; for direct activation of GABAA receptors: before application of GABA
T1 construct: expressed in transfected cells; host or cells: Xenopus laevis oocytes
T1 sequence (P14867 28-456): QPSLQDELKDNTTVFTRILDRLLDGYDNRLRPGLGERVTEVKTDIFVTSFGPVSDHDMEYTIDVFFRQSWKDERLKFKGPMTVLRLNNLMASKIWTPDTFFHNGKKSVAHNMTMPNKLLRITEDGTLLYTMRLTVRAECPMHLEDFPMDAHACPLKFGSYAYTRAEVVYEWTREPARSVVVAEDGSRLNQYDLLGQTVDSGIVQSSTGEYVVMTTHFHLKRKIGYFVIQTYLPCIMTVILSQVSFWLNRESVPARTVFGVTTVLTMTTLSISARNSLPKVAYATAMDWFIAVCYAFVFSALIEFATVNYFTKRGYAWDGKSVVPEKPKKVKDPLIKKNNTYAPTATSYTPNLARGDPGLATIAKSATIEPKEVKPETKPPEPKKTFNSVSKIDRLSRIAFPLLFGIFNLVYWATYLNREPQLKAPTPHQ
T1 sequence (P47870 25-512 limits assumed): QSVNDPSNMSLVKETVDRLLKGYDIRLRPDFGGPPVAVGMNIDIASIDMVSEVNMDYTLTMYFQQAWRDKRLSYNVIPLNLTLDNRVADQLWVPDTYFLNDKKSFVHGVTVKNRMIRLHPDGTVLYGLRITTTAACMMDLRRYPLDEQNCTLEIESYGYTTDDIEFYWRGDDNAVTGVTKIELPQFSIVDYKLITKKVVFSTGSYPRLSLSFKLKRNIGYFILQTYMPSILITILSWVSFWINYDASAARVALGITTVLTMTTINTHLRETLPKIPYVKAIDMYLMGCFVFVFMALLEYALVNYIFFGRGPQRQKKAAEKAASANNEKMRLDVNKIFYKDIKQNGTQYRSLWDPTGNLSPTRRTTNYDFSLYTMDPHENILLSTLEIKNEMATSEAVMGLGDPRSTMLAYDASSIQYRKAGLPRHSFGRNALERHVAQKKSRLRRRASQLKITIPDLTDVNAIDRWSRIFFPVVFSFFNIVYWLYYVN
T1 sequence (P18507 40-475 partner): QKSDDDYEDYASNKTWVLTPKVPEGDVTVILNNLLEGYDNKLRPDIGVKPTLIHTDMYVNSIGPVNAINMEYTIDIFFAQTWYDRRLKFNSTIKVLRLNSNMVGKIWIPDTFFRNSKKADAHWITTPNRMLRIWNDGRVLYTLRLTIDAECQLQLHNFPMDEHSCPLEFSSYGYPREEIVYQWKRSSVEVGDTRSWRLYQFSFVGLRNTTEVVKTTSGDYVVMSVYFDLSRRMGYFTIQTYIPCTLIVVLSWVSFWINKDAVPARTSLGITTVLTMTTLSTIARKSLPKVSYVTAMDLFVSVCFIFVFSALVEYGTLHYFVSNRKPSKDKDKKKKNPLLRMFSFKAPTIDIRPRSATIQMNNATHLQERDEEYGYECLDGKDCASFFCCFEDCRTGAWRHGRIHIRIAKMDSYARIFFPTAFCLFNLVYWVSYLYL

rats [5] = test: ACTH1-24-stimulated serum corticosterone in rats (adrenocortical function); settings: 30 min after equianesthetic dose
Xenopus laevis tadpoles [6] = settings: Husain et al. 2003, read-out: EC50 / free-aqueous concentration inducing loss of righting reflexes in tadpoles; cited from earlier work
humans = settings: Arden et al. 1986; cited from earlier work
patients = settings: cited from earlier work
[7] = in-vitro metabolism in pooled human S9 liver fraction; settings: for half-life at 10 μM: human, s9; for rate of metabolism relative to (R)-etomidate: liver enzymes, S9
Xenopus laevis tadpoles [8] = test: tadpole loss of righting reflex assay
animals = settings: LD50/ED50; cited from earlier work

Compound | increase in heart rate shortly after injection (rats [2]) [BPM] | ED50 (rats [3]) [mg/kg] | anesthetic toxicity in rats (rats [3]) | slope of duration of LORR versus logarithm of anesthetic dose (rats [3]) | enhancement of amplitudes of GABA-evoked currents [4] [%] | direct activation of GABAA receptors [4] | ACTH1-24-stimulated corticosterone concentration versus vehicle (rats [5]) | duration of significant effect on mean blood pressure (rats [2]) [s] | maximum decrease in mean blood pressure relative to baseline (rats [2]) [mmHg] | half-life at 10 μM [7] [min] | therapeutic index (animals) | further results
CCOC(=O)c1cncn1[C@H](C)c1ccccc1 (stereo in doubt) [(R)-etomidate, ethyl 3-(1-phenylethyl)imidazole-4-carboxylate] | 49±67 | 1 ± 0.03 | no obvious anesthetic toxicity | 27±7 | – | – | – | – | – | – | – | duration of significant effect on mean blood pressure (rats [1]): 6.5 min; maximum decrease in mean blood pressure relative to baseline (rats [1]): −36±11 mmHg
CCOC(=O)c1cncn1[C@H](C)c1ccccc1 [(R)-etomidate, ethyl 3-(1-phenylethyl)imidazole-4-carboxylate] | – | – | – | – | 660±240 | evoked small currents | significantly lower; also recorded: significantly reduced | – | – | – | – | EC50 (Xenopus laevis tadpoles [6]): ~2000 nM and 2000 nM; free-aqueous concentration inducing loss of responsiveness (humans): ~2 µM; duration of adrenal suppression after single bolus induction dose (patients; critically ill patients): ≥ 24 h; persistence of adrenal insufficiency after discontinuing prolonged infusion (patients; doses producing general anesthesia): more than 4 days
COC(=O)CCOC(=O)c1cncn1[C@H](C)c1ccccc1 [MOC-(R)-etomidate, (R)-3-Methoxy-3-oxopropyl1-(1-phenylethyl)-1H-imidazole-5-carboxylate] | 24±33 | 5.2 ± 1 | no obvious anesthetic toxicity | 2.8±0.4 | 450±130 | evoked small currents | not different from those that had received only vehicle; also recorded: no reduction; also recorded: unchanged versus control | 30 | −11±15 | 4.2 | – | duration of reduction in blood pressure (rats [2]; summary): 30 s; percent of original concentration remaining ([7]; by 40 min): < 1%; percent metabolized ([7]; by 40 min, +NADPH, 37° C.): more than 99%; concentration remaining ([7]; by 40 min, start 10 μM): < 100 nM; rate of metabolism relative to (R)-etomidate [7]: at least 100 fold; rate of metabolism relative to (R)-etomidate ([7]; listed as MOC-(R)-Etomidate): > 100 fold; toxicity in tadpoles (Xenopus laevis tadpoles [8]; 0.1-128 μM, recovery in fresh oxygenated water): No evidence of toxicity was observed; EC50 (Xenopus laevis tadpoles [8]; Xenopus laevis, read-out: anesthetic EC50 (loss of righting reflexes)): 8000 ± 2000 nM; fraction of tadpoles anesthetized (Xenopus laevis tadpoles [8]; highest concentrations, 48-128 μM): all tadpoles were anesthetized; duration of LORR shorter versus propofol or (R)-etomidate (rats [3]; equianesthetic doses): ~10 fold; anesthetic potency relative to (R)-etomidate's potency (rats [3]; two species (tadpoles, rats)): ¼^th-⅕^th
O=C1CC2(CCCC2)CC(=O)N1CCCCN1CCN(c2ncccn2)CC1 [buspirone] | – | – | – | – | – | – | – | – | – | 15.4 | – | –
CC(C)c1cccc(C(C)C)c1O [propofol] | 64±56 | 4.1 ± 0.3 | no obvious anesthetic toxicity | 22±4 | – | – | – | 420 | −51±19 | – | 3.1 | –
CCCC(C)C1(CC)C(=O)NC(=S)NC1=O (stereo not shown) [thiopental] | – | – | – | – | – | – | – | – | – | – | 4.6 | –
